# Test results published in paper PMC13266984 (Journal of medicinal chemistry, 2026).
# How the values were obtained:
# OE19 (3A1) = target: T1, OE19 (3A1) (Homo sapiens, UniProt P30838); assay: Cellular ALDEFLUOR assay in OE19 cells (preferential ALDH3A1 expression)
# T1 sequence (P30838 1-453): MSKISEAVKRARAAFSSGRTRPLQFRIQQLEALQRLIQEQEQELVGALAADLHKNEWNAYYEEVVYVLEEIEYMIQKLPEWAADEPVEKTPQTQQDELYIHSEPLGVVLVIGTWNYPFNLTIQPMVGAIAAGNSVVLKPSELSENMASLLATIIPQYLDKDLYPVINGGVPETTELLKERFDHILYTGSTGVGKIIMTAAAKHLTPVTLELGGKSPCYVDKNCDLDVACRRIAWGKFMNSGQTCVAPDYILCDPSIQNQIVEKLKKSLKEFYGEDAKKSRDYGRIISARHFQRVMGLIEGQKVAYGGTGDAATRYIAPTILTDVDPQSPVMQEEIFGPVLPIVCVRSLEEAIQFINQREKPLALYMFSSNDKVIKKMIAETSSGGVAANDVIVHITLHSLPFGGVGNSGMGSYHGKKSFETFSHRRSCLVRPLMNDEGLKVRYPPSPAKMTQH
# Human ALDH3A1 = target: T2, Human ALDH3A1 (Homo sapiens, UniProt P30838); assay: ALDH3A1 biochemical assay (benzaldehyde/NADP+, diaphorase-resazurin readout, 1,536-well)
# T2 sequence (P30838 1-453): T1 sequence (P30838 1-453)
# [1] = Table S4, biochemical curve class
# [2] = Table S5, biochemical curve class
# [3] = Table S2, in-house analogs, curve class
# [4] = Table S1, primary screen, curve class
AC50 (Human ALDH3A1) [µM],"Efficacy (Human ALDH3A1; Table S2, in-house analogs)",CC-v2 (Human ALDH3A1; [3]),"Efficacy (Human ALDH3A1; Table S1, primary screen)",CC-v2 (Human ALDH3A1; [4]),also measured,SMILES
14.5,–,–,–,–,"AC50 (OE19 (3A1)): 15.7 µM; Cell_Efficacy (OE19 (3A1); Table S4, OE19 cells): -71.00; Cell_CC-v2 (OE19 (3A1); Table S4, cellular curve class): -1.4; Efficacy (Human ALDH3A1; Table S4, biochemical): -66.81; CC-v2 (Human ALDH3A1; [1]): -1.2",Cc1cccc(CNC(=O)c2csc(N3CCN(c4ccc(C5(C#N)CC5)cc4)CC3)n2)c1 [NCGC01210256-01]
0.41,–,–,–,–,"AC50 (OE19 (3A1)): 8.81 µM; Cell_Efficacy (OE19 (3A1); Table S4, OE19 cells): -81.02; Cell_CC-v2 (OE19 (3A1); Table S4, cellular curve class): -1.3; Efficacy (Human ALDH3A1; Table S4, biochemical): -99.96; CC-v2 (Human ALDH3A1; [1]): -1.1",Cc1cccc(CNC(=O)c2csc(N3CCN(c4ccccc4Br)CC3)n2)c1 [Compound 9]
2.57,–,–,–,–,"AC50 (OE19 (3A1)): 15.7 µM; Cell_Efficacy (OE19 (3A1); Table S4, OE19 cells): -77.14; Cell_CC-v2 (OE19 (3A1); Table S4, cellular curve class): -1.2; Efficacy (Human ALDH3A1; Table S4, biochemical): -61.43; CC-v2 (Human ALDH3A1; [1]): -1.2",Cc1cccc(CNC(=O)c2csc(N3CCN(c4cccc(O)c4)CC3)n2)c1 [NCGC01211119-01]
0.0178,–,–,–,–,"AC50 (OE19 (3A1)): 1.53 µM; Cell_Efficacy (OE19 (3A1); Table S5, OE19 cells): -119.85; Cell_CC-v2 (OE19 (3A1); Table S5, cellular curve class): -2.1; Efficacy (Human ALDH3A1; Table S5, biochemical): -100.27; CC-v2 (Human ALDH3A1; [2]): -1.1",O=C(NCc1cccc(Oc2ccccc2)c1)c1csc(N2CCN(c3cccc(C(F)(F)F)c3)CC2)n1 [NCGC01407978-01]
8.91,–,–,–,–,"AC50 (OE19 (3A1)): 0.0316 µM; Cell_Efficacy (OE19 (3A1); Table S5, OE19 cells): -111.10; Cell_CC-v2 (OE19 (3A1); Table S5, cellular curve class): -1.1; Efficacy (Human ALDH3A1; Table S5, biochemical): -57.06; CC-v2 (Human ALDH3A1; [2]): -1.2",C[S+](=N)([O-])c1cccc(CNC(=O)c2csc(N3CCN(c4cccc(C(F)(F)F)c4)CC3)n2)c1 (stereo not drawn) [NCGC01407817-01]
14.1,-93.02,-1.1,–,–,–,COc1ccc(NC(=O)N[C@@H]2C=C[C@@H](c3c(C)nn(CCC#N)c3C)C2)cc1 [NCGC00399960-01]
0.32,-23.33,-1.4,–,–,–,Cc1ccc2[nH]c(CO[C@H]3CN(C4CCOCC4)C[C@H]3F)nc2c1 [NCGC00392993-01]
14.1,–,–,-63.09,-2.2,–,COc1ccc(NC(=O)N[C@H]2C[C@@H](C(=O)N[C@@H](Cc3cccs3)C(N)=O)N(C(=O)CSC)C2)cc1 [NCGC00398253-01]
0.45,-92.90,-1.1,–,–,–,Fc1ccc2[nH]c(CO[C@H]3CN(Cc4ccc5ccccc5n4)C[C@H]3F)nc2c1 [NCGC00393065-01]
35.5,–,–,-17.95,-2.4,–,NC(=O)[C@H](Cc1ccc(O)cc1)NC(=O)[C@@]1(O)C[C@@H](O)[C@H](O)[C@@H](NC(=O)c2ccc(F)c(Cl)c2)C1 [NCGC00398197-01]
31.6,–,–,-39.16,-2.2,–,COCc1noc(-c2ccc(NC[C@H]3CCc4ccccc4O3)nc2)n1 [NCGC00428876-01]
14.1,–,–,-49.01,-2.2,–,COc1ccc(CNc2cc3c(cn2)CN(Cc2ccccc2)CCN3)cc1OC [NCGC00411020-01]
10,–,–,-21.09,-1.4,–,O=C(NCc1ccc(Cl)cc1)c1cc2n(n1)CC(c1ccc3c(c1)OCO3)OC2 (stereo not drawn) [NCGC00450299-01]
15.8,–,–,-43.09,-2.4,–,COc1ccc(CCN2Cc3cc(NC(=O)Cc4cccs4)ccc3OCC2=O)cc1 [NCGC00475032-01]
15.8,–,–,-25.02,-2.4,–,O=C(CCc1cc2n(n1)CCCNC2)Nc1ccc2c(c1)OCCO2 [NCGC00441819-01]
28.2,-67.89,-3,–,–,–,COC(=O)c1ccc2nc(CO[C@H]3CN(C(=O)C4CCOCC4)C[C@H]3F)[nH]c2c1 [NCGC00392526-01]
0.63,-48.22,-1.2,–,–,–,CN1CCOc2c(C(=O)NCCC(N)=O)cc(-c3ccccc3O)cc21 [NCGC00417061-01]
4.47,–,–,-31.03,-1.2,–,Cc1ccc2nc(CN3CCC(c4cccc(C#N)c4)CC3)cc(O)c2c1 [NCGC00449346-01]

AC50 (Human ALDH3A1) [µM],"Efficacy (Human ALDH3A1; Table S2, in-house analogs)",CC-v2 (Human ALDH3A1; [3]),"Efficacy (Human ALDH3A1; Table S1, primary screen)",CC-v2 (Human ALDH3A1; [4]),also measured,SMILES
28.2,-37.07,-2.4,–,–,–,O=C(NCC1CC1)c1csc(N2CCN(c3ccccc3F)CC2)n1 [NCGC00430728-01]
4.47,-26.14,-2.4,–,–,–,Cc1ccc2[nH]c(CO[C@H]3CN(Cc4ccc(F)c(F)c4)C[C@H]3F)nc2c1 [NCGC00392991-01]
35.5,–,–,-42.40,-2.4,–,CC1(COCC2CC2)COc2ccc(C(=O)Nc3cccc([S+](C)(=O)[O-])c3)cc2N1 (stereo not drawn) [NCGC00416184-01]
28.2,–,–,-30.64,-2.4,–,COc1cccc(NC(=O)O[C@@H]2CO[C@H]3[C@@H]2OC[C@@H]3Nc2nccc(-c3ccccc3)n2)c1 [NCGC00398388-01]
14.1,–,–,-93.27,-2.3,–,Cc1cc(OC2CN(C(=O)c3cc(-c4ccc(F)cc4)n[nH]3)C2)n2ncnc2n1 [NCGC00531207-01]
39.8,–,–,-51.44,-3,–,COc1cccc(CN2CC(Oc3ccccc3C(=O)NC3CC3)C2)c1 [NCGC00458073-01]
2.82,-61.06,-2.2,–,–,–,Cc1c(-c2cc(C(=O)NCc3cccnc3)c3c(c2)N(C)CCO3)cnn1C [NCGC00417124-01]
1.78,-71.11,-1.2,–,–,–,O=C(NCc1ccccc1Cl)c1csc(N2CCN(c3ccc(F)cc3)CC2)n1 [NCGC00430734-01]
0.25,-27.44,-1.4,–,–,–,COc1ccc(N2CCN(c3nc(C(=O)NCC4CCCCC4)cs3)CC2)cc1 [NCGC00430670-01]
14.1,–,–,-59.29,-2.4,–,O=C(NCC(F)(F)F)c1cc(C2CCN(C(=O)c3cc(-c4ccco4)n[nH]3)CC2)n[nH]1 [NCGC00528999-01]
20,–,–,-57.15,-2.2,–,Cc1cc(=O)[nH]c(N2CCC(NC(=O)NCc3ccco3)CC2)n1 [NCGC00530028-01]
28.2,-77.64,-2.2,–,–,–,CC(=O)Nc1cccc(-c2cc(C(=O)NCc3cnn(C)c3)c3c(c2)N(C)CCO3)c1 [NCGC00417085-01]
6.31,-78.52,-1.2,–,–,–,O=C(NCc1cccs1)c1csc(N2CCN(c3ccccc3F)CC2)n1 [NCGC00430730-01]
7.08,-65.35,-1.2,–,–,–,O=C(NCc1cccs1)c1csc(N2CCN(c3ccc(F)cc3)CC2)n1 [NCGC00430736-01]
0.79,-109.85,-1.1,–,–,–,COC(=O)c1ccc2nc(CO[C@H]3CN(Cc4ccc5ccccc5n4)C[C@H]3F)[nH]c2c1 [NCGC00391159-01]
15.8,-42.05,-2.4,–,–,–,O=C(NC1CCCC1)c1csc(N2CCN(c3cccc(Cl)c3)CC2)n1 [NCGC00430704-01]
25.1,-31.39,-2.4,–,–,–,COc1ccc(-n2nc(C)c([C@@H]3C=C[C@@H](NCc4ccccc4)C3)c2C)cc1 [NCGC00391544-01]
12.6,-83.58,-1.1,–,–,–,CNC(=O)c1cccc(-c2cnc3[nH]cc(CC(=O)NCC(C)C)c3c2)c1 [NCGC00412294-01]
